Experimental data published in ChEMBL document CHEMBL5226348, “Recent Progress of Small Molecule Menin-MLL Interaction Inhibitors as Therapeutic Agents for Acute Leukemia” (J Med Chem, 2021).
pIC50: −log10 of the molar value.

How the values were obtained:
[1] = Oral bioavailability in mouse; assay type: ADME, organism-based; settings: in vivo
[2] = target: T1, Menin/Histone-lysine N-methyltransferase MLL (Homo sapiens, UniProt O00255); experiment: Inhibition of Menin to MLL (unknown origin) protein-protein interaction; assay type: protein assay
T1 sequence (O00255 whole entry): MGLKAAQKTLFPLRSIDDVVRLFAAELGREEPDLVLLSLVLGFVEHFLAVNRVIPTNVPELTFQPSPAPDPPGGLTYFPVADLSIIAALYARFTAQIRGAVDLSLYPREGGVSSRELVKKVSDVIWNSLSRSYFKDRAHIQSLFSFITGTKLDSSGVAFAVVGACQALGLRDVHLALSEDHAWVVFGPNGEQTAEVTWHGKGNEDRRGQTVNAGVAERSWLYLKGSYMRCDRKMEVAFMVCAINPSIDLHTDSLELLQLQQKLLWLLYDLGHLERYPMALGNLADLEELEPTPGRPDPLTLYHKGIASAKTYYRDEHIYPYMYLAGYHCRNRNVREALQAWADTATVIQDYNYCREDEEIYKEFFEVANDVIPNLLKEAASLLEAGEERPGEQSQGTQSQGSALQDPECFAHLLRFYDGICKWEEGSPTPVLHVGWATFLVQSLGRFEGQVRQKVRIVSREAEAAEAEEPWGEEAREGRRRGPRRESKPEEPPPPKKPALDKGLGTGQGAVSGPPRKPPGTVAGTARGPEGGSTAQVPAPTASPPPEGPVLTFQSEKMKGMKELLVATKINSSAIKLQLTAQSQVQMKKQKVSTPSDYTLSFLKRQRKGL
T1 sequence (Q03164 1-2718 partner limits assumed): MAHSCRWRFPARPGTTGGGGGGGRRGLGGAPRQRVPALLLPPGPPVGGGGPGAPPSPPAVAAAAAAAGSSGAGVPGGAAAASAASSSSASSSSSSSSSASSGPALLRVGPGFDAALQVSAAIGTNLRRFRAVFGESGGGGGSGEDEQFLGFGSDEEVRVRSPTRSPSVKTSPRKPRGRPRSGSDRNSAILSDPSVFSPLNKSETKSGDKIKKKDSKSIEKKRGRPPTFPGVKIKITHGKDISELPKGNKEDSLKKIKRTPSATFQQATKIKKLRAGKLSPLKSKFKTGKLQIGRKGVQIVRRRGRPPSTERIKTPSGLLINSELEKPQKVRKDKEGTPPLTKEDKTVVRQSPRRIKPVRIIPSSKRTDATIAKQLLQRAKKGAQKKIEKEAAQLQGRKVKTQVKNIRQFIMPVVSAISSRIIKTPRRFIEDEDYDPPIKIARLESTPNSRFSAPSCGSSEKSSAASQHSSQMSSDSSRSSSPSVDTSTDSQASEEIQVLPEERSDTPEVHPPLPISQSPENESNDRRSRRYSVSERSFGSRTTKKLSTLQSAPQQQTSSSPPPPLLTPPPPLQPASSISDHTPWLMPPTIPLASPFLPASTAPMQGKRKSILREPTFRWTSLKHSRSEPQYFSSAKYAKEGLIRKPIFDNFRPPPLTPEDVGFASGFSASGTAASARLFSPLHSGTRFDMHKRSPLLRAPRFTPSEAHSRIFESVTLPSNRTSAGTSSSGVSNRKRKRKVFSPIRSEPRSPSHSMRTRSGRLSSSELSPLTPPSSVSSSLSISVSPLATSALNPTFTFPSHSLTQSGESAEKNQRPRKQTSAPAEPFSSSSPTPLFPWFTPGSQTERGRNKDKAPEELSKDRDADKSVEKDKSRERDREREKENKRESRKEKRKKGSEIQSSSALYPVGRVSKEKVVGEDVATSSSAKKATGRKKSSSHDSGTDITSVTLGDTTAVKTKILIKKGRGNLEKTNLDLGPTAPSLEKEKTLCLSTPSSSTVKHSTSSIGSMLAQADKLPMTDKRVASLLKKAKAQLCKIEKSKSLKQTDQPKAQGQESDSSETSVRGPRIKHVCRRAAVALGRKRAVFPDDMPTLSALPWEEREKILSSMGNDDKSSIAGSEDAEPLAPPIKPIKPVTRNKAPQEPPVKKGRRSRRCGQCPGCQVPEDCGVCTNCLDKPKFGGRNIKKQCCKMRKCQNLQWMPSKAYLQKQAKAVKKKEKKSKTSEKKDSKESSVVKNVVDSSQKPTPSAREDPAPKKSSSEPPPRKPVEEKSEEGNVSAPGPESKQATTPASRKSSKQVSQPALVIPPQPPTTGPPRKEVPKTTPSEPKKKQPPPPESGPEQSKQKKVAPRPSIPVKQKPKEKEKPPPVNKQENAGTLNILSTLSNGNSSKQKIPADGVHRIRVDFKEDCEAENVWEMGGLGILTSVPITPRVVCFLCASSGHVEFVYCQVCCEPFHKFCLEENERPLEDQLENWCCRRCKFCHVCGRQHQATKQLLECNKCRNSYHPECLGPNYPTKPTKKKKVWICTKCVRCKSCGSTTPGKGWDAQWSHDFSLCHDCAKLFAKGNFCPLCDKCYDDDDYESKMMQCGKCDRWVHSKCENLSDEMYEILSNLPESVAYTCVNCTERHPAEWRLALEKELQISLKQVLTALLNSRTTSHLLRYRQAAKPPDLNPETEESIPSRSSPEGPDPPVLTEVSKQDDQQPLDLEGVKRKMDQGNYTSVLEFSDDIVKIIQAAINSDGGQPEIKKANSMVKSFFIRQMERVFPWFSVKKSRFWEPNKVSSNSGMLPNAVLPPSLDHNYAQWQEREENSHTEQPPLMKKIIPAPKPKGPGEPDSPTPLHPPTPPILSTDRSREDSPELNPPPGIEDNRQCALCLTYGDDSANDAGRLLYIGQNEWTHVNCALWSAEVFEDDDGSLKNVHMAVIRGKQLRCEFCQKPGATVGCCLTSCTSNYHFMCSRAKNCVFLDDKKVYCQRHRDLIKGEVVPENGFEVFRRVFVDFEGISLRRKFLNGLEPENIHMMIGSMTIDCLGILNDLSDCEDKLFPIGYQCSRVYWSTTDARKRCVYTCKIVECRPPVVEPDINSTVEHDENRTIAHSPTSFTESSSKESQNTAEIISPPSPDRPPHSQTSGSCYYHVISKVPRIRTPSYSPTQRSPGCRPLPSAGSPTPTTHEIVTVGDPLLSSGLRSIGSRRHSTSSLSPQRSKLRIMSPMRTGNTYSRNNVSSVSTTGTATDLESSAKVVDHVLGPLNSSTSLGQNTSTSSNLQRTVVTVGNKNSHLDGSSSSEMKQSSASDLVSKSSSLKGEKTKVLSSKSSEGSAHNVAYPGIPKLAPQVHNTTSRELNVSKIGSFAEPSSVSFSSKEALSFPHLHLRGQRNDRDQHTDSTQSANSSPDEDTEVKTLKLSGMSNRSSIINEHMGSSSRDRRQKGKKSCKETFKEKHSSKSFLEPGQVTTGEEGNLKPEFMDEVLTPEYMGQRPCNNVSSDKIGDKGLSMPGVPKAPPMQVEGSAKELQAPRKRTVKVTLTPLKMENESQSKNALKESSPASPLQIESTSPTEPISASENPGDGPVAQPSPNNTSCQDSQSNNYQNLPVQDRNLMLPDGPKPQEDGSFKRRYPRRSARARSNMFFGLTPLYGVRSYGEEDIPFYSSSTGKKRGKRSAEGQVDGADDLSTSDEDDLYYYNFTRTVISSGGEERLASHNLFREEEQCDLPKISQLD
T1 sequence (Q03164 2719-3969 partner limits assumed): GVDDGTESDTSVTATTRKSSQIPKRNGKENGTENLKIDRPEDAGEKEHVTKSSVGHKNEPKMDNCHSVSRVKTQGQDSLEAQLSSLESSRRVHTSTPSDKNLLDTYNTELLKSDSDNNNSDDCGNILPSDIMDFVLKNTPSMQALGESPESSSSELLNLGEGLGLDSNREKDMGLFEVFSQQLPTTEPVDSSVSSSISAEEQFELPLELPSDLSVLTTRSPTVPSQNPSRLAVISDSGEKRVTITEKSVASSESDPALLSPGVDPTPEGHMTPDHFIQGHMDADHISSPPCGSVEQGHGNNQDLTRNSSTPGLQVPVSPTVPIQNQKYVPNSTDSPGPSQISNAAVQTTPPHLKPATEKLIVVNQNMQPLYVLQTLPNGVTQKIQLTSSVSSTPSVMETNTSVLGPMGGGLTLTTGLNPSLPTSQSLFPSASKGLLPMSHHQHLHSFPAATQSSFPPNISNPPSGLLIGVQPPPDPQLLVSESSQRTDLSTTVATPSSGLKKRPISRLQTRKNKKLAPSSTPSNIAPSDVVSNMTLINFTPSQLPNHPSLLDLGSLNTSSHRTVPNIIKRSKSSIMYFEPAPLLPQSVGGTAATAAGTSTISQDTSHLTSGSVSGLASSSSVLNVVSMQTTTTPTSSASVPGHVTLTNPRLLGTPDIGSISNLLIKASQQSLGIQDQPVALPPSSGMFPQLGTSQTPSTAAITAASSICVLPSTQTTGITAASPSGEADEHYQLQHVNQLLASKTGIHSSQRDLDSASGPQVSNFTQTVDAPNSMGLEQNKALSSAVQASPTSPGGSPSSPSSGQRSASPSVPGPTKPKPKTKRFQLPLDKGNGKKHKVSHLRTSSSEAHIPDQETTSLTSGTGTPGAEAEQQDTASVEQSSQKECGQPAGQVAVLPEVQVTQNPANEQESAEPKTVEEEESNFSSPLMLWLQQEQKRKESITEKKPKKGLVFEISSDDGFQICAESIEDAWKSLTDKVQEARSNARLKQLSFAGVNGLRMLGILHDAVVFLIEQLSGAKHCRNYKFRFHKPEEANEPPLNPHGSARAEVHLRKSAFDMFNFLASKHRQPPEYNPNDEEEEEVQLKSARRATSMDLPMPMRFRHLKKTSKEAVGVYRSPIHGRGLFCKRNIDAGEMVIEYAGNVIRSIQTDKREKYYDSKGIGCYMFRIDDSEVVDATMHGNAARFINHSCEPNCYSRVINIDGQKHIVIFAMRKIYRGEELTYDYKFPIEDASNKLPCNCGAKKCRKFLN

[3] = target: T1, Menin/Histone-lysine N-methyltransferase MLL; experiment: Inhibition of human Menin to MLL protein-protein interaction; assay type: protein assay
MV4-11 = experiment: Antiproliferative activity against human MV4-11 cells; assay type: functional
MOLM-13 = experiment: Antiproliferative activity against human MOLM-13 cells; assay type: functional

Row | pIC50 [3] | GI50 (MV4-11) [nM] | GI50 (MOLM-13) [nM] | SMILES | pIC50 [2] | other results
1 |  |  |  | Cc1c(CN2CCC(Nc3ncnc4sc(CC(F)(F)F)cc34)CC2)ccc2[nH]c(C#N)cc12 |  | bioavailability [1]: 44%
2 |  |  |  | O=c1cccc2n1C[C@@H]1C[C@H]2CN(CC(O)CSCc2ccccc2)C1 (stereo not given in full) | 7.40 | 
3 |  | 17 | 13 | CC(C)N(C(=O)c1cc(F)ccc1Oc1cncnc1N1CC2(CCN(C[C@H]3CC[C@H](NS(C)(=O)=O)CC3)CC2)C1)C(C)C | 4.40 | 
4 | 8.33 |  |  | Clc1ccc2c(NCCN3CCN(CCCCCCCN4CCN(CCNc5ccnc6cc(Cl)ccc56)CC4)CC3)ccnc2c1 |  | 
5 |  | 9500 |  | CCCc1cc2c(N3CCN(C4=NCC(C)(C)S4)CC3)ncnc2s1 |  | 
6 | 9.30 | 7.6 | 12.5 | CNc1nc(NC2CCN(Cc3ccc4c(cc(C#N)n4CC45CC(NC=O)(C4)C5)c3C)CC2)c2cc(CC(F)(F)F)sc2n1 |  | 
7 |  |  |  | C[C@@]12CN(CC(O)CCCc3ccccc3)C[C@@](C)(C1)c1cccc(=O)n1C2 (stereo not given in full) | 9.00 | 
8 |  | 2.7 | 15.4 | COC(=O)N[C@H]1CCC[C@@H]1[C@](C#N)(c1cccc(F)c1)C1CCN(CC2CN(c3ccc(S(=O)(=O)C4CN(C(=O)/C=C/CN(C)C)C4)cc3)C2)CC1 |  | 
9 |  |  |  | Cc1c(CN2CCC(Nc3ncnc4sc(CC(F)(F)F)cc34)CC2)ccc2c1cc(C#N)n2Cc1cn[nH]c1 |  | bioavailability [1]: 73%

Row | SMILES | pIC50 [3] | GI50 (MV4-11) [nM] | GI50 (MOLM-13) [nM] | pIC50 [2] | other results
10 | NCC(CCN1CC=C(c2ccc(Cl)cc2)CC1)(c1ccccc1)C1CCCC1 (stereo not given) | 9.08 |  |  |  | 
